From paper PMC10004267, “Resveratrol, a New Allosteric Effector of Hemoglobin, Enhances Oxygen Supply Efficiency and Improves Adaption to Acute Severe Hypoxia” (Molecules, 2023)

Experiments:
[1] = biological target: T1, hemoglobin of adult (HbA) (Homo sapiens, UniProt P68871+P69905); experiment: SPR (OpenSPR, HbA immobilized on COOH chip, one-to-one model); supported by thermal shift (Tm1) and P50 shift; assay type: binding
T1 construct: gene HBA1; HbA tetramer purified from human whole blood; with hemoglobin subunit beta (HBB)

[2] = biological target: T2, hemoglobin of adult (HbA) (Homo sapiens, UniProt P68871); experiment: SPR (OpenSPR, HbA immobilized), control compound; assay type: binding
T2 construct: gene HBB; HbA tetramer purified from human whole blood; with hemoglobin subunit alpha (HBA1)
T2 sequence (P68871 2-147): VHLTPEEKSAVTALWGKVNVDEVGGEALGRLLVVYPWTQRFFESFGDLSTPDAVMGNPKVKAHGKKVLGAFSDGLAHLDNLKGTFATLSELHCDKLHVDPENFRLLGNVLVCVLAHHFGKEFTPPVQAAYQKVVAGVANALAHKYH
T2 sequence (P69905 2-142 partner): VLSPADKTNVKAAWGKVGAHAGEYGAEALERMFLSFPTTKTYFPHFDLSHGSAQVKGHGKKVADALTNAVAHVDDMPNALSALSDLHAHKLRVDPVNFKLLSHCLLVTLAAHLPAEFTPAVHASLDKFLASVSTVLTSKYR

T1 sequence (P69905 2-142): as the sequence (P69905 2-142 partner) above
T1 sequence (P68871 2-147): as the sequence (P68871 2-147) above

Row | Kd [2] | Structure (SMILES) | Kd [1]
1 |  | Oc1ccc(/C=C/c2cc(O)cc(O)c2)cc1 [RSV, 3,4′,5-trihydroxy-trans-stilbene] | 48.6 µM
2 | 462 µM | O=C(O)C(COP(=O)(O)O)OP(=O)(O)O (centres unmarked) [2,3-DPG, 2,3-Diphosphoglycerate] | 
